Data published in the supplement of paper PMC3937590.

Tests used:
Test in all cases: -log10 GI50 (growth inhibition 50%) (-log10(M)); higher = more potent growth inhibition
[1] = tested on: 184B5
Method in brief: (§1)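 Breast cancer cell lines were exposed to each compound for 72 hours at nine doses in 1:5 serial dilution, in triplicate, with a luminescence read-out against a time-zero plate. A Gompertz curve was fitted to the dose-response data by nonlinear least squares. The value is minus log10 of GI50, the molar concentration giving the set level of growth inhibition. Values equal to the top dose carry a < qualifier.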

[2] = tested on: 600MPE
Method in brief: as §1

[3] = tested on: AU565
Method in brief: as §1

[4] = tested on: BT549
Method in brief: as §1

[5] = tested on: CAMA1
Method in brief: as §1

[6] = tested on: HCC1143
Method in brief: as §1

[7] = tested on: HCC1395
Method in brief: as §1

[8] = tested on: HCC1419
Method in brief: as §1

[9] = tested on: HCC1569
Method in brief: as §1

[10] = tested on: HCC1806
Method in brief: as §1

[11] = tested on: HCC2185
Method in brief: as §1

[12] = tested on: HCC3153
Method in brief: as §1

[13] = tested on: MCF10A
Method in brief: as §1

[14] = tested on: MCF7
Method in brief: as §1

[15] = tested on: MDAMB134VI
Method in brief: as §1

[16] = tested on: MDAMB157
Method in brief: as §1

[17] = tested on: SUM1315MO2
Method in brief: as §1

[18] = tested on: ZR751
Method in brief: as §1

SMILES	-log10 GI50 [1]	-log10 GI50 [2]	-log10 GI50 [3]	-log10 GI50 [4]	-log10 GI50 [5]	-log10 GI50 [6]	-log10 GI50 [7]	-log10 GI50 [8]	-log10 GI50 [9]	-log10 GI50 [10]	-log10 GI50 [11]	-log10 GI50 [12]	-log10 GI50 [13]	-log10 GI50 [14]	-log10 GI50 [15]	-log10 GI50 [16]	-log10 GI50 [17]	-log10 GI50 [18]
CCn1cc(-c2ccnc3[nH]c(-c4cccc(CN(C)C)c4)cc23)c(-c2ccc(NC(=O)N(C)C)cc2)n1	6.19	5.1	5.52	5.71	5.05	5.52	5.27	5.18	6.17	5.16	6.3	4.97	6.12	5.06	5.59	6.23	5.9	5.08
CCNCCCNC/C=C\CNCCCNCC	3.13	3.68	3.33	4.73	2.91	4.05	4.09	4.85	3.71	3.88	3.39	5.24	4.2	3.46	2.97	2.96	2.95	3.29
O=C(O)C1(C(=O)O)CCC1.[NH2-].[NH2-].[Pt+2] [Carboplatin]	5.29	3.82	4.95	4.61	3.72	3.88	5	4.02	3.96	4.81	4.88	4.45	4.2	3.64	3.66	4.07	4.57	4.1
O=c1[nH]cc(F)c(=O)[nH]1 [Fluorouracil]	< 1.72	4.11	4.69	4.01	3.51	3.76	3.18	3.77	3.96	4.61	3.42	3.45	4.95	4.37	2.66	3.11	3.37	4.52
COc1cccc2c1C(=O)c1c(O)c3c(c(O)c1C2=O)C[C@@](O)(C(=O)CO)C[C@@H]3O[C@H]1C[C@H](N)[C@H](O)[C@H](C)O1 [Doxorubicin]	–	6.69	7.03	6.94	6.58	6.6	6.6	6.33	5.59	6.79	7.29	6.48	6.79	6.11	5.95	6.49	6.73	6.87
CC/C(=C(\c1ccccc1)c1ccc(OCCN(C)C)cc1)c1ccccc1 [Tamoxifen]	–	4.35	4.05	< 3.78	4.46	4.28	4.37	< 3.78	< 3.78	4.31	4.21	< 3.78	4.16	< 3.78	6.78	4.09	4.46	< 3.78
O=C1NC(=O)/C(=C/c2ccc3nccc(-c4ccncc4)c3c2)S1	–	6.31	6.32	5.73	5.77	6.24	5.61	6.59	5.94	5.82	6.9	5.54	6.57	5.56	6.33	6.17	6.49	5.99
C[C@@H](Oc1cc(-n2cnc3ccc(CN4CCN(C)CC4)cc32)sc1C(N)=O)c1ccccc1C(F)(F)F	6.69	5.16	8.58	7.48	5.17	7.17	8.37	5.13	7.05	7.95	8.29	7.78	7.37	6.5	7.83	8.02	7.52	5.16
COc1cccc2c1C(=O)c1c(O)c3c(c(O)c1C2=O)C[C@@](O)(C(=O)CO)C[C@@H]3O[C@H]1C[C@H](N)[C@@H](O)[C@H](C)O1 [Epirubicin]	8.25	–	6.84	6.7	–	6.58	6.14	6.15	6.06	6.78	6.91	6.19	6.71	6.45	5.98	6.31	7.44	6.6
CC(=O)Nc1cccc(-n2c(=O)n(C3CC3)c(=O)c3c(Nc4ccc(I)cc4F)n(C)c(=O)c(C)c32)c1	–	8.17	5.01	5.55	< 4.78	< 4.78	6.71	7.23	< 4.78	6.39	< 4.78	< 4.78	8.23	< 4.78	8.33	6.57	7.19	< 4.78
N.N.[Cl][Pt][Cl] [Cisplatin]	< 3.3	4.33	5.72	5.6	4.39	5.04	5.91	4.91	5.11	5.68	5.71	5.12	5.1	4.66	3.73	4.62	5.75	4.99
C=CCNC1=C2C[C@@H](C)C[C@H](OC)[C@H](O)[C@@H](C)/C=C(\C)[C@H](OC(N)=O)[C@@H](OC)/C=C\C=C(/C)C(=O)NC(=CC1=O)C2=O [17-AAG]	7.56	6.65	7.24	7.51	6.6	6.86	6.54	7.41	6.84	7.05	6.93	6.82	7.4	6.25	7.42	–	7.72	6.83
CCC1=C[C@@H]2CN(C1)Cc1c([nH]c3ccccc13)[C@@](C(=O)OC)(c1cc3c(cc1OC)N(C)[C@H]1[C@@](O)(C(=O)OC)[C@H](OC(C)=O)[C@]4(CC)C=CCN5CC[C@]31[C@@H]54)C2 [Vinorelbine]	–	5.97	8.24	8.02	7.88	6.49	8.45	6.45	6.42	7.97	5.23	7.29	7.43	7.85	7.95	7.89	8.65	7.37
COc1cc2ncnc(Nc3ccc(F)c(Cl)c3)c2cc1OCCCN1CCOCC1 [Gefitinib]	7.43	5.21	5.97	4.86	–	4.93	5.17	5.5	5.19	5.31	4.53	< 4.48	6.17	< 4.48	4.72	4.92	5.83	< 4.48
CC(C)Oc1ccc(C(=O)N[C@H](CNC(=O)CN(C)C)Cc2ccc(-c3cn4cccc([C@H](C)O)c4n3)cc2)cc1Cl	5.17	< 4.48	7.62	7.3	7.33	6.98	7.35	5.72	6.59	7.34	7.41	7.22	7.29	5.74	6.52	7.48	7.46	7.09
CCc1c2c(nc3ccc(OC(=O)N4CCC(N5CCCCC5)CC4)cc13)-c1cc3c(c(=O)n1C2)COC(=O)[C@]3(O)CC [CPT-11]	5.66	4.71	5.83	5.47	4.84	4.88	6	4.62	4.62	5.81	5.5	4.73	5.7	4.64	4.94	5.43	5.34	5.44
CC(=O)O[C@@]12CO[C@@H]1C[C@H](O)[C@@]1(C)C(=O)[C@H](O)C3=C(C)[C@@H](OC(=O)[C@H](O)[C@@H](NC(=O)OC(C)(C)C)c4ccccc4)C[C@@](O)([C@@H](OC(=O)c4ccccc4)[C@H]21)C3(C)C [Docetaxel]	8.39	7.61	8.3	8.46	–	8.06	8.24	7.8	8.12	8.62	8.52	8.01	8.63	7.91	7.81	8.76	8.71	7.74
CC(=O)O[C@H]1C(=O)[C@@]2(C)[C@H]([C@H](OC(=O)c3ccccc3)[C@]3(O)C[C@H](OC(=O)[C@H](O)[C@@H](NC(=O)c4ccccc4)c4ccccc4)C(C)=C1C3(C)C)[C@]1(OC(C)=O)CO[C@@H]1C[C@@H]2O [Paclitaxel]	7.74	7.51	8.14	8.16	7.95	7.8	7.71	7.04	7.95	8.11	8.22	7.7	8.03	7.79	7.99	8.27	8.29	7.76
Nc1ccn([C@@H]2O[C@H](CO)[C@@H](O)C2(F)F)c(=O)n1 [Gemcitabine]	6.14	7.64	7.81	8.08	6.79	7.92	6.47	4.81	6.76	8.72	7.61	7.19	7.7	4.77	2.85	–	6.91	7.45
COC1=C2C[C@@H](C)C[C@H](OC)[C@H](O)[C@@H](C)/C=C(\C)[C@H](OC(N)=O)[C@@H](OC)/C=C\C=C(/C)C(=O)NC(=CC1=O)C2=O [Geldanamycin]	8.01	7.43	7.35	8.22	7.47	7.1	7.42	7.49	7.47	7.12	7.69	7.18	8.23	6.62	7.8	7.71	7.7	7.06
